Measurements published in BindingDB's records for doi:10.1021/jm00160a056 (1986).

Target: Trifunctional purine biosynthetic protein adenosine-3 (Mus musculus) (UniProt Q64737)
Experiment: Compound was evaluated for the inhibition of GAR transformylase isolated from murine lymphoma cell line L5178Y

Chain of Trifunctional purine biosynthetic protein adenosine-3 (Mus musculus) (Q64737 whole entry, looked up): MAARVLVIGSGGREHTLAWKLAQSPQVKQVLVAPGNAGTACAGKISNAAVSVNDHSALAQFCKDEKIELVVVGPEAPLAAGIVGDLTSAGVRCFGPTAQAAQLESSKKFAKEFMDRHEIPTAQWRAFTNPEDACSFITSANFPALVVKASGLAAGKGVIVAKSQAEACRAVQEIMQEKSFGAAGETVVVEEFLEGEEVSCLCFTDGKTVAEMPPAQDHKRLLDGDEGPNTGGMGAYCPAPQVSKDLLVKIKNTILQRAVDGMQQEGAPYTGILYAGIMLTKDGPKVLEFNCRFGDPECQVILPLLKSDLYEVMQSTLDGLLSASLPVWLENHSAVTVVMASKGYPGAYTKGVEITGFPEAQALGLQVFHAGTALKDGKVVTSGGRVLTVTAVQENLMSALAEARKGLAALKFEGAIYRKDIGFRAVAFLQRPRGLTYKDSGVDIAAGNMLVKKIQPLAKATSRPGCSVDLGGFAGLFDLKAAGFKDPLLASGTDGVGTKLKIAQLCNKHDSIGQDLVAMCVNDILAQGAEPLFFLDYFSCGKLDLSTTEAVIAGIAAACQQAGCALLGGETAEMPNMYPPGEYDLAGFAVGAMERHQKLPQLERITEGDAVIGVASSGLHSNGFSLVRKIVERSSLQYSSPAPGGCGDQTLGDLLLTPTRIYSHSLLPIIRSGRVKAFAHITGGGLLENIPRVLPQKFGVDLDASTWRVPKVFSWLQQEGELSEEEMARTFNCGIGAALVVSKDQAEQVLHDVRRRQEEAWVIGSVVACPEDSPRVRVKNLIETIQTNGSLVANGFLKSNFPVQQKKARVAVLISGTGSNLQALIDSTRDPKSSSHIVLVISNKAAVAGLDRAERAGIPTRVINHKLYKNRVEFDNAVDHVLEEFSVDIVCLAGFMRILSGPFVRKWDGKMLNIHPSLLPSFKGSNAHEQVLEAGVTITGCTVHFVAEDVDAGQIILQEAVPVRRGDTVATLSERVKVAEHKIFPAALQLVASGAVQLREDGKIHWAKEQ

Row | SMILES | Ki [nM]
1 | Nc1nc2ccc(CNc3ccc(C(=O)NC(CCC(=O)O)C(=O)O)cc3)cc2c(=O)[nH]1 (configuration not stated) | 2000
2 | CC(=O)N(Cc1ccc2nc(N)[nH]c(=O)c2c1)c1ccc(C(=O)NC(CCC(=O)O)C(=O)O)cc1 (configuration not stated) [2-{4-[Acetyl-(2-amino-4-oxo-3,4-dihydro-quinazolin-6-ylmethyl)-amino]-benzoylamino}-pentanedioic acid] | 1300
